From ChEMBL document CHEMBL1132943, “Synthesis of B-ring homologated estradiol analogues that modulate tubulin polymerization and microtubule stability” (J Med Chem, 2000)

Legend:
Cell line = experiment: Tested for cytotoxicities and mean graph midpoint (MGM) for growth inhibition of all 55 human cell lines; format: functional
Tubulin [1] = molecular target: T1, Tubulin (Bos taurus, UniProt Q6B856+Q862F3); experiment: Effective concentration for enhancement of tubulin assembly rate was determined; format: functional
Tubulin [2] = molecular target: T1, Tubulin; experiment: Inhibition of polymerization of purified bovine tubulin; format: functional
Tubulin (Bos taurus) [3] = molecular target: T2, Tubulin (Bos taurus) (UniProt Q6B856+Q862L2+Q862F3); experiment: Compound was evaluated for inhibition of colchicine binding to tubulin in experiment I.; format: protein assay; conditions: concentration not given here
Tubulin (Bos taurus) [4] = molecular target: T2, Tubulin (Bos taurus); experiment: Compound was evaluated for inhibition of colchicine binding to tubulin in experiment II.; format: protein assay; conditions: concentration not given here

T1 sequence (Q6B856 whole entry): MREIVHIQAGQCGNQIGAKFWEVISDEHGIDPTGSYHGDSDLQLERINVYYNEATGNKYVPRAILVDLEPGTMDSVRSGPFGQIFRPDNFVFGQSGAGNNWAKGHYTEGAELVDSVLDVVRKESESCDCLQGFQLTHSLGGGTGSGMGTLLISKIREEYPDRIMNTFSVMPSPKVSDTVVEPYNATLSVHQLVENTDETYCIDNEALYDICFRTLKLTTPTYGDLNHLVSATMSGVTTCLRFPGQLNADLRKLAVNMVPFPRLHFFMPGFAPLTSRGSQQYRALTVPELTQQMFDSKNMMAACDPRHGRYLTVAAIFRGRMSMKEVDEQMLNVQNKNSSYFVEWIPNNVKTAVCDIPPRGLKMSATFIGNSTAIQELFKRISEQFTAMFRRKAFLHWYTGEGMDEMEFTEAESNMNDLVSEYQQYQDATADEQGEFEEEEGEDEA
T1 sequence (Q862F3 whole entry): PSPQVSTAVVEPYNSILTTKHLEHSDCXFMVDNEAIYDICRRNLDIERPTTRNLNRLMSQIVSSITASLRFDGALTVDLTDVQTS

Structure (SMILES)	EC50 (Tubulin [1]) [µM]	IC50 (Tubulin [2]) [µM]	MGM (Cell line) [µM]	inhibition (Tubulin (Bos taurus) [3]) [%]	inhibition (Tubulin (Bos taurus) [4]) [%]
CCOc1cc2c(cc1O)[C@H](NC(C)=O)CC[C@H]1C3CC[C@H](O)[C@@]3(C)CC[C@H]21 (some centres undefined)	> 200		90.4		
CCOc1cc2c(cc1O)C=CCC1C2CC[C@@]2(C)C1CC[C@@H]2O (some centres undefined)		0.85	1.32		
CCOc1cc2c(cc1O)/C(=N\OC)C[C@@H]1[C@@H]2CC[C@]2(C)[C@@H](O)CC[C@@H]12			0.27		
CCOc1cc2c(cc1OC(C)=O)CCCC1C2CC[C@@]2(C)C1CC[C@@H]2OC(C)=O (some centres undefined)		> 400	14.5		
CCOc1cc2c(cc1O)C/C(=N\NS(=O)(=O)c1ccc(C)cc1)CC1C2CC[C@@]2(C)C1CC[C@@H]2O (some centres undefined)		80	15.5		
CCOc1cc2c(cc1OC(C)=O)CC(=O)CC1C2CC[C@@]2(C)C1CC[C@@H]2OC(C)=O (some centres undefined)	> 400				
CC(=O)O[C@H]1C(=O)[C@@]2(C)[C@H]([C@H](OC(=O)c3ccccc3)[C@]3(O)C[C@H](OC(=O)[C@H](O)[C@@H](NC(=O)c4ccccc4)c4ccccc4)C(C)=C1C3(C)C)[C@]1(OC(C)=O)CO[C@@H]1C[C@@H]2O [PACLITAXEL]	0.83				
CCOc1cc2c(cc1O)/C(=N\O)C[C@@H]1[C@@H]2CC[C@]2(C)[C@@H](O)CC[C@@H]12			0.079		
CCOc1cc2c(cc1OC(C)=O)C(=O)C[C@@H]1[C@@H]2CC[C@]2(C)[C@@H](OC(C)=O)CC[C@@H]12	> 400				
COc1cc2c(cc1O)CC[C@@H]1[C@@H]2CC[C@]2(C)[C@@H](O)CC[C@@H]12 [2-METHOXYESTRADIOL]		1.4	1.3	19	60
CCOc1cc2c(cc1O)CC[C@@H]1[C@@H]2CC[C@]2(C)[C@@H](O)CC[C@@H]12		0.66	0.076	51	87
CCOc1cc2c(cc1OC(C)=O)C(=O)CCC1C2CC[C@@]2(C)C1CC[C@@H]2OC(C)=O (some centres undefined)		5.5	>100		

More lines, main results first:

EC50 (Tubulin [1]) [µM]	IC50 (Tubulin [2]) [µM]	Structure (SMILES)	MGM (Cell line) [µM]	inhibition (Tubulin (Bos taurus) [3]) [%]	inhibition (Tubulin (Bos taurus) [4]) [%]
	99	CCOc1cc2c(cc1O)C/C(=N\O)CC1C2CC[C@@]2(C)C1CC[C@@H]2O (some centres undefined)	42.7		
	3	CCOc1cc2c(cc1O)C(=O)C[C@@H]1[C@@H]2CC[C@]2(C)[C@@H](O)CC[C@@H]12	0.13	19	
	6.9	CCOc1cc2c(cc1O)[C@@H](NC(C)=O)CCC1C2CC[C@@]2(C)C1CC[C@@H]2O (some centres undefined)	7		
	30	CCOc1cc2c(cc1O)/C(=N/OC)CCC1C2CC[C@@]2(C)C1CC[C@@H]2O (some centres undefined)	24		
360		CCOc1cc2c(cc1OC(C)=O)C(=O)CCC1C2CC[C@@]2(C)C1CC[C@@H]2O (some centres undefined)			
	0.97	CCOc1cc2c(cc1O)CCCC1C2CC[C@@]2(C)C1CC[C@@H]2O (some centres undefined)	2.48	56	
	8.1	CCOc1cc2c(cc1O)CC(=O)CC1C2CC[C@@]2(C)C1CC[C@@H]2O (some centres undefined)	11.5		
> 200		CCOc1cc2c(cc1OC(C)=O)/C(=N/OC)CCC1C2CC[C@@]2(C)C1CC[C@@H]2OC(C)=O (some centres undefined)			
	130	CCOc1cc2c(cc1O)C(=O)CCC1C2CC[C@@]2(C)C1CC[C@@H]2O (some centres undefined)	14.4		
	57	CCOc1cc2c(cc1O)/C(=N/O)CCC1C2CC[C@@]2(C)C1CC[C@@H]2O (some centres undefined)	51.3		
8.2		CCOc1cc2c(cc1O)C(=O)CCC1C2CC[C@@]2(C)C1CC[C@@H]2OC(C)=O (some centres undefined)			
